The text below walks through data of patent US20220153751A1, “BIFUNCTIONAL COMPOUNDS” (BioTheryX, Inc., priority 2018, published 2022).

What all share (assay type): cell-based
The target in one experiment is T1, IKAROS (Homo sapiens, UniProt Q13422+Q96SW2).
T1 construct: endogenous in cells; host or cells: MV-4-11
Description: IKAROS degradation assay (Western blot, MV-4-11 cells). The settings on record: MV4-11, 6-8 h. The gist of the method: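 6-8 h cpd vs DMSO, ~10^6 cells/mL; RIPA lysis on ice 15 min; 4-12% SDS-PAGE, nitrocellulose, IRDye secondaries, Odyssey scan. % degradation categories: A <25, B 25-<50, C 50-<75, D ≥75%.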

The target in the next experiment is T2, CK1α (Homo sapiens, UniProt P48729+Q96SW2).
T2 construct: Whole cell extracts were prepared using RIPA buffer; endogenous in cells; host or cells: MV-4-11
T2 sequence (P48729 whole entry): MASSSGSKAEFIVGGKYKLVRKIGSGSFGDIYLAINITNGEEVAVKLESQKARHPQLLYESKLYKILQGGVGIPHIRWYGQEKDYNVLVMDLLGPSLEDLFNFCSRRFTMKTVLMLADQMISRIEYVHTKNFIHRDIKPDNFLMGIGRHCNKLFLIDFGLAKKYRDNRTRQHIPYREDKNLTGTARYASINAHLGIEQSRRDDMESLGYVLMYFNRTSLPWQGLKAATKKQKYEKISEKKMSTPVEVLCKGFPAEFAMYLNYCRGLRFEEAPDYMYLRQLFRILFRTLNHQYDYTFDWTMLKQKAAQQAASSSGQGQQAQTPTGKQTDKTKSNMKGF
T2 sequence (Q96SW2 whole entry): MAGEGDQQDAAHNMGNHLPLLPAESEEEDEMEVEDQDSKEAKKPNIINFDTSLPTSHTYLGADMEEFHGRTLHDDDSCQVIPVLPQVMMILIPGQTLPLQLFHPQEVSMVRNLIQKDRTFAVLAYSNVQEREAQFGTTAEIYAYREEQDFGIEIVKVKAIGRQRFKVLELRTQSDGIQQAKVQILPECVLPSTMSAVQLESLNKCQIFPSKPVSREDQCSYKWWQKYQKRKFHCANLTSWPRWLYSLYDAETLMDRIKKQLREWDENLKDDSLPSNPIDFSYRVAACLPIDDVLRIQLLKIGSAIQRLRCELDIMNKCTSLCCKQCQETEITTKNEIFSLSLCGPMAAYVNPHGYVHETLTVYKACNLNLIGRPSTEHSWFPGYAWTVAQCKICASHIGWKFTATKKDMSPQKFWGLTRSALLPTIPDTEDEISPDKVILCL
T2 sequence (Q16531 whole entry partner): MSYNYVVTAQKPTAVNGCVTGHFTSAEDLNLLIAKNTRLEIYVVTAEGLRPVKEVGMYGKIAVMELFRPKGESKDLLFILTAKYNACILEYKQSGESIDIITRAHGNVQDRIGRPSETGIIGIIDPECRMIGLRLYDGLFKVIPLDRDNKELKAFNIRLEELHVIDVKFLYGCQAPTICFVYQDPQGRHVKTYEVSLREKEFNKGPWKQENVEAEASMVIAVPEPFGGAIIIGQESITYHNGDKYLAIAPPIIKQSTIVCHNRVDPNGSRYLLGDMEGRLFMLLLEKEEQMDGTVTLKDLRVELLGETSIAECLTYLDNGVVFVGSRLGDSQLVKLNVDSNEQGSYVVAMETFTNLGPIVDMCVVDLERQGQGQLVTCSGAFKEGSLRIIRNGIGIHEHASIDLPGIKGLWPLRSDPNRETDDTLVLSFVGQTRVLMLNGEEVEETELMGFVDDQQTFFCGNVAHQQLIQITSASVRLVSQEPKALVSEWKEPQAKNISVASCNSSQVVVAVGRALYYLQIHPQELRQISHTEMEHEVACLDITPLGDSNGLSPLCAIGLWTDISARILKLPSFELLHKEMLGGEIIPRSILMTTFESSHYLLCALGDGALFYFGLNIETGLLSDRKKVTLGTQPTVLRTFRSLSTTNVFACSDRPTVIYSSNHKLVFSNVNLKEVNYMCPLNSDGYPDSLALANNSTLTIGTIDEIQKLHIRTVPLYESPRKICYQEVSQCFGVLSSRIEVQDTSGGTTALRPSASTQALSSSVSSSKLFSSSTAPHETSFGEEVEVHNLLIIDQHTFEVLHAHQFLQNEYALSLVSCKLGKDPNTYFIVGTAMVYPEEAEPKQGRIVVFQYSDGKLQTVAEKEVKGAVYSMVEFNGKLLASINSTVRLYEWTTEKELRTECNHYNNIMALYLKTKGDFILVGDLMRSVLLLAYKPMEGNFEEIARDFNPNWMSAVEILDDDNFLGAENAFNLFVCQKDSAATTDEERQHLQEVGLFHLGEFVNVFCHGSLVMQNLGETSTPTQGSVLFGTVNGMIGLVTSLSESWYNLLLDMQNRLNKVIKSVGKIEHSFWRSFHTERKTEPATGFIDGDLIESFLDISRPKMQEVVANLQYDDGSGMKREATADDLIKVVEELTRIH
Description: CK1α degradation assay (Western blot, MV-4-11 cells). As to conditions: MV4-11, 6-8 h. On the procedure:
(§1) MV-4-11 cells were grown in RPMI 1640 media supplemented with 10% fetal bovine serum, streptomycin and penicillin.
(§2) Cells were cultured at approximately 10^6 cells per mL and incubated in DMSO or the indicated compound for 6-8 h. Whole cell extracts were prepared using RIPA buffer according to manufacturer's protocol (Pierce). Briefly, 3×10^6 cells were washed once in PBS, the cell pellets were resuspended in RIPA buffer and allowed to incubate for 15 minutes on ice. Cells debris was removed by centrifugation and the cleared whole cell lysates were transferred to new tubes for further analysis.
(§3) For Western blot analysis, whole cell protein extracts were separated on 4-12% SDS-polyacrylamide gels, transferred to nitrocellulose and probed with the indicated primary antibodies. Membranes were subsequently washed and probed with the appropriate IRDye secondary antibodies (LI-COR). The signal was detected using the Odyssey Imaging System (LI-COR).
(§4) The following antibodies were used in these studies: Anti-eRF3/GSPT1: Abcam, ab126090 (Cambridge, Mass.); Anti-Ikaros: Abcam, ab191394 (Cambridge, Mass.); Anti-CK1α: Abcam, ab108296 (Cambridge, Mass.); Anti-CDK9: Santa Cruz Biotechnology, sc13130 (Dallas, Tex.); Anti-CDK16: Millipore Sigma, HPA001366 (St. Louis, Mo.); 3-actin (8H10comD10) mouse monoclonal antibody: Cell Signaling Technology, #3700 (Danvers, Mass.); IRDye 680RD Goat anti-rabbit antibody: LI-COR, 926-68071 (Lincoln, Nebr.); IRDye 800CW Goat anti-mouse antibody: LI-COR, 926-32210 (Lincoln, Nebr.).
(§5) CDK9 activities are shown in Table 4 at two different concentrations. CDK16 activities are shown in Table 5 at two different concentrations. In each of Tables 1-5, the % degradation values are reported as “A”, “B”, “C”, or “D”. “A” represents a % degradation value of less than 25% (value <25%). “B” represents a % degradation value of equal to or more than 25% and less than 50% (25%≤value<50%). “C” represents a % degradation value of equal to or more than 50% and less than 75% (50%≤value<75%). “D” represents a % degradation value of equal to or more than 75% (value ≥75%).

The next experiment deals with T3, GSPT1 (Homo sapiens, UniProt P15170+Q96SW2).
T3 construct: Whole cell extracts were prepared using RIPA buffer; endogenous in cells; host or cells: MV-4-11
T3 sequence (P15170 whole entry): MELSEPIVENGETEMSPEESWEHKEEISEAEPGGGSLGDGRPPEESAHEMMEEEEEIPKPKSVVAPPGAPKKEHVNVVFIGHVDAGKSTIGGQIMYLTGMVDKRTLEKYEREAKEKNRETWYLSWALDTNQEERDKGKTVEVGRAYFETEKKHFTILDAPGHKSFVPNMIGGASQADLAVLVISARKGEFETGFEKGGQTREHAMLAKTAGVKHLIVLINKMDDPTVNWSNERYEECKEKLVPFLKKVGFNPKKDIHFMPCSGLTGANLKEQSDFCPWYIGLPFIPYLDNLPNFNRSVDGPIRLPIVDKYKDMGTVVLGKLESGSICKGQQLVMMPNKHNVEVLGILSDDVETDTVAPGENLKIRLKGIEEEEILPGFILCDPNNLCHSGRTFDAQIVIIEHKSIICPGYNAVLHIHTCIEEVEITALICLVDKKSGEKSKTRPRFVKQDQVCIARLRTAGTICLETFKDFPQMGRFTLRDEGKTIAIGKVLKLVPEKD
T3 sequence (Q96SW2 whole entry): as the sequence (Q96SW2 whole entry) above
T3 sequence (Q16531 whole entry partner): as the sequence (Q16531 whole entry partner) above
In words: GSPT1 degradation assay (Western blot, MV-4-11 cells). The settings on record: MV4-11, 6-8 h. On the procedure: as §1, §2, §3, §4, §5

Another experiment relates to MOLM-13 cells. In words: MOLM-13 cell viability assay (CellTiter-Glo). As to conditions: Homo sapiens, MOLM-13, 72 h, 3 days, read-out: MOLM-13 Cell Viability % DMSO at 1 μM. A digest of the protocol:
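MOLM-13 cells at 2500 cells/well were exposed to compound for 3 days at 37 °C. Viability was read by CellTiter-Glo luminescence and expressed as % of DMSO control, binned A (<50%), B (50–<70%), C (70–<90%) or D (≥90%).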

The subject of a further experiment is IL-1β. In words: IL-1β inhibition assay, LPS-induced PBMCs / CD14+ monocytes (Meso Scale). As to conditions: 1 h pretreatment, 100 ng/mL LPS 18-24 h. On the procedure: (§6) Either frozen primary blood mononuclear cells (PBMCs) or frozen CD14+ mobilized peripheral blood monocytes were purchased from AllCells (PB003F, Normal Peripheral Blood MNC (Alameda, Calif.)). Cells were quick thawed, washed 1-time with RPMI-1640 (10% FBS/1% Pen-Strep) and plated in 96 well plates at 200,000 cells per well. Cells were pretreated with DMSO only or with the indicated compound for 1 h and then induced with 100 ng/mL lipopolysaccharide (LPS) for 18-24 h. The supernatant was analyzed for IL-1β, IL-6, and TNFα, using Meso Scale assay according to manufacturer's protocol. The negative control wells were treated with DMSO.
(§7) In Table 6, the % inhibition values are reported as “A”, “B”, “C”, or “D”. “A” represents a % inhibition value of less than 50% (value <50%). “B” represents a % inhibition value of equal to or more than 50% and less than 70% (50%≤value<70%). “C” represents a % inhibition value of equal to or more than 70% and less than 90% (70%≤value<90%). “D” represents a % inhibition value of equal or more than 90% (value ≥90%). In Table 7, the fold-change values are reported as “A”, “B”, “C”, or “D”. “A” represents a fold-change value of equal to or less than 0.1 (value ≤0.1). “B” represents a fold-change value of more than 0.1 and equal to or less than 0.5 (0.1<value≤0.5). “C” represents a fold-change value of more than 0.5 and equal to or less than 1 (0.5<value≤1). “D” represents a fold-change value of more than 1 (value >1).

The next experiment concerns IL-6. In words: IL-6 inhibition assay, LPS-induced PBMCs / CD14+ monocytes (Meso Scale). As to conditions: 1 h pretreatment, 100 ng/mL LPS 18-24 h. On the procedure:
as §6, §7

A further experiment has as its system TNF-α. In words: TNF-α inhibition assay, LPS-induced PBMCs / CD14+ monocytes (Meso Scale). The settings on record: 1 h pretreatment, 100 ng/mL LPS 18-24 h. The procedure:
as §6, §7

T1 sequence (Q13422 whole entry): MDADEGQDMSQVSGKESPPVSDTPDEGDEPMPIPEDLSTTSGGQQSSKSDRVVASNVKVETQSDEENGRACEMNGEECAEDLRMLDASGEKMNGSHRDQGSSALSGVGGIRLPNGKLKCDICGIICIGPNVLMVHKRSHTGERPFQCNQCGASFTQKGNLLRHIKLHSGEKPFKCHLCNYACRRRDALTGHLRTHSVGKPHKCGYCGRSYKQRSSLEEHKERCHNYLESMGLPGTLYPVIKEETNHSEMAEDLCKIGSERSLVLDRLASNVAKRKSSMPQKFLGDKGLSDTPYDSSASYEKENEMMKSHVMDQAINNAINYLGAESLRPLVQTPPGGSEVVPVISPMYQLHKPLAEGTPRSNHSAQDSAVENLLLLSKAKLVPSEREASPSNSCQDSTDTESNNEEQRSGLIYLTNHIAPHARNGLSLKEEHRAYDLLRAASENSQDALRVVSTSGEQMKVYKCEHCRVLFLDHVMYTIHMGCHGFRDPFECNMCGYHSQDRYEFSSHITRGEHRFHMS
T1 sequence (Q96SW2 whole entry): as the sequence (Q96SW2 whole entry) above
T1 sequence (Q16531 whole entry partner): as the sequence (Q16531 whole entry partner) above

Take `Cn1ncc(-c2nc(N[C@H]3CC[C@H](NCC(=O)NCCNC(=O)NCc4cc5c(s4)C(=O)N(C4CCC(=O)NC4=O)C5)CC3)ncc2Cl)c1CC1CC1` (stereo partly shown) [Compound 45, 2-(((1r,4r)-4-((5-chloro-4-(5-(cyclopropylmethyl)-1-methyl-1H-pyrazol-4-yl)pyrimidin-2-yl)amino)cyclohexyl)amino)-N-(2-(3-((5-(2,6-dioxopiperidin-3-yl)-6-oxo-5,6-dihydro-4H-thieno[2,3-c]pyrrol-2-yl)methyl)ureido)ethyl)acetamide]: the figures for the Dmax at 1 µM at IKAROS, at CK1α and at GSPT1 were 25 to 50%, less than 25% and 25 to 50%, respectively. For the same molecule, the viability at 1 µM in the experiment on MOLM-13 cells is greater than 90%.
Regarding `CC(C)(C)c1cnc(CSc2cnc(NC(=O)C3CCN(CC(=O)NCCOCCNC(=O)NCc4ccc5c(c4)CN([C@H]4CCCC(=O)NC4=O)C5=O)CC3)s2)o1` [Compound 6, (S)—N-(5-(((5-(tert-butyl)oxazol-2-yl)methyl)thio)thiazol-2-yl)-1-(1-(2-(2,7-dioxoazepan-3-yl)-1-oxoisoindolin-5-yl)-3,11-dioxo-7-oxa-2,4,10-triazadodecan-12-yl)piperidine-4-carboxamide], the Dmax at 1 µM at IKAROS was 25 to 50%; on CK1α, less than 25%. For the same molecule, the inhibition at 1 µM was less than 50% with IL-1β, 50 to 70% in the experiment on IL-6 and less than 50% in the experiment on TNF-α. For the same molecule, in the experiment on MOLM-13 cells, the viability at 1 µM is less than 50%.
Turning to `Cn1ncc(-c2nc(N[C@H]3CC[C@H](NCCOCCOCCOCCOCCNc4cccc5c4C(=O)N(C4CCC(=O)NC4=O)C5=O)CC3)ncc2Cl)c1CC1CC1` (stereo partly shown) [Compound 64, 4-((14-(((1r,4r)-4-((5-chloro-4-(5-(cyclopropylmethyl)-1-methyl-1H-pyrazol-4-yl)pyrimidin-2-yl)amino)cyclohexyl)amino)-3,6,9,12-tetraoxatetradecyl)amino)-2-(2,6-dioxopiperidin-3-yl)isoindoline-1,3-dione], the values for the Dmax at 1 µM on IKAROS, at CK1α and at GSPT1 were no less than 75%, 25 to 50% and no less than 75%, respectively. In addition, the viability at 1 µM in the experiment on MOLM-13 cells is greater than 90%.
Take `Cn1ncc(-c2nc(N[C@H]3CC[C@H](NCCOCCOCCOCCNCc4ccc(OCc5scc6c5CN([C@H]5CCC(=O)NC5=O)C6=O)cc4)CC3)ncc2Cl)c1CC1CC1` [Compound 69, (S)-3-(1-((4-(13-(((1r,4r)-4-((5-chloro-4-(5-(cyclopropylmethyl)-1-methyl-1H-pyrazol-4-yl)pyrimidin-2-yl)amino)cyclohexyl)amino)-5,8,11-trioxa-2-azatridecyl)phenoxy)methyl)-4-oxo-4H-thieno[3,4-c]pyrrol-5(6H)-yl)piperidine-2,6-dione]: the Dmax at 1 µM is no less than 75% on IKAROS and 50 to 75% on CK1α. The inhibition at 1 µM was 70 to 90% in the experiment with IL-1β, less than 50% in the experiment on IL-6 and 70 to 90% in the experiment with TNF-α. For the same molecule, the viability at 1 µM in the experiment on MOLM-13 cells is less than 50%.
Consider `CC(C)(C)c1cnc(CSc2cnc(NC(=O)C3CCN(CC(=O)NCCOCCNC(=O)NCc4cccc5c4CN([C@H]4CCCC(=O)NC4=O)C5=O)CC3)s2)o1` [Compound 7, (S)—N-(5-(((5-(tert-butyl)oxazol-2-yl)methyl)thio)thiazol-2-yl)-1-(1-(2-(2,7-dioxoazepan-3-yl)-1-oxoisoindolin-4-yl)-3,11-dioxo-7-oxa-2,4,10-triazadodecan-12-yl)piperidine-4-carboxamide], for which the Dmax at 1 µM on IKAROS and at CK1α was less than 25% each time. The inhibition at 1 µM in the experiment on IL-1β, in the experiment on IL-6 and in the experiment on TNF-α was less than 50% in each case. Moreover, the viability at 1 µM with MOLM-13 cells was less than 50%.
Take `CC(C)(C)c1cnc(CSc2cnc(NC(=O)C3CCN(CC(=O)NCCCCCNC(=O)NCc4scc5c4CN(C4CCC(=O)NC4=O)C5=O)CC3)s2)o1` (stereo not shown) [Compound 11, N-(5-(((5-(tert-butyl)oxazol-2-yl)methyl)thio)thiazol-2-yl)-1-(2-((5-(3-((5-(2,6-dioxopiperidin-3-yl)-4-oxo-5,6-dihydro-4H-thieno[3,4-c]pyrrol-1-yl)methyl)ureido)pentyl)amino)-2-oxoethyl)piperidine-4-carboxamide]: the Dmax at 1 µM on CK1α and at GSPT1 was 25 to 50% each time. For the same molecule, the viability at 1 µM in the experiment with MOLM-13 cells was greater than 90%.
`CC(C)(C)c1cnc(CSc2cnc(NC(=O)C3CCN(CC(=O)NCCCNCC(=O)NCc4cc5c(s4)C(=O)N(C4CCC(=O)NC4=O)C5)CC3)s2)o1` (stereo not shown) [Compound 52, N-(5-(((5-(tert-butyl)oxazol-2-yl)methyl)thio)thiazol-2-yl)-1-(2-((3-((2-(((5-(2,6-dioxopiperidin-3-yl)-6-oxo-5,6-dihydro-4H-thieno[2,3-c]pyrrol-2-yl)methyl)amino)-2-oxoethyl)amino)propyl)amino)-2-oxoethyl)piperidine-4-carboxamide]: the Dmax at 1 µM at IKAROS lay in the range of 25 to 50%; at CK1α, 25 to 50%; on GSPT1 it was 50 to 75%. Moreover, the viability at 1 µM in the experiment on MOLM-13 cells is greater than 90%.
`Cn1ncc(-c2nc(N[C@H]3CC[C@H](NCC(=O)NCCOCCOCCOCCNc4cccc5c4C(=O)N(C4CCC(=O)NC4=O)C5=O)CC3)ncc2F)c1CC1CC1` (stereo partly shown) [Compound 50, 2-(((1r,4r)-4-((4-(5-(cyclopropylmethyl)-1-methyl-1H-pyrazol-4-yl)-5-fluoropyrimidin-2-yl)amino)cyclohexyl)amino)-N-(2-(2-(2-(2-((2-(2,6-dioxopiperidin-3-yl)-1,3-dioxoisoindolin-4-yl)amino)ethoxy)ethoxy)ethoxy)ethyl)acetamido]: the greatest degradation seen (Dmax) at 1 µM on IKAROS was no less than 75%; at CK1α, 25 to 50%; on GSPT1, 50 to 75%. In addition, the viability at 1 µM with MOLM-13 cells is greater than 90%.
